Measurements published in patent publication US11357873B2, “Chiral cyclen compounds and their uses” (THE HONG KONG POLYTECHNIC UNIVERSITY, priority 2016, dated 2022).
Marks after values point to notes of the source that are not given here.

Tests used:
Type in all cases: physicochemical
[1] = Rate of complexation of ligands with metal salts under mild (radiolabeling) conditions; conditions: pD 6.0-7.0, 50° C., 1H NMR titration
[2] = Absorption and photoluminescence (quantum yield, lifetime, q); design: λabs(max): unit not given here; conditions: for R, I(5D0 → 7F2)/I(5D0 → 7F1): asymmetry ratio, 10 in MeOH; for R, I(5D0 → 7F2)/I(5D0 → 7F1) / λabs(max): room temperature, 11 in DMSO; for ΦDMSO (%): luminescence quantum yield in DMSO; for λabs(max): 10 measured in MeOH
Experimental: (§1) Absorption spectra of complexes were measured with HP UV-8453 spectrophotometer. Steady-state room temperature photoluminescence measurements were performed with an Edinburgh Instrument FLSP920 spectrophotometer equipped with a Xe900 continuous xenon lamp, μF920 microsecond flash lamp and a single photon counting photomultiplier tube. Spectra were corrected with the bundled F900 software. Solution-state measurements were conducted using quartz curettes of 10 mm path length. CPL measurements were conducted on a custom built spectrometer^63 (in Durham University) consisting of a laser driven light source (Energetiq EQ-99 LDLS, spectral range 170 to 2100 nm) coupled to an Acton SP2150 monochromator (600 g/nm, 300 nm Blaze) that allows excitation wavelengths to be selected with a 6 nm FWHM band-pass. The collection of the emitted light was facilitated (90° angle set up, 1 cm path length quartz curette) by a Lock-In Amplifier (Hinds Instruments Signaloc 2100) and Photoelastic Modulator (Hinds Instruments PEM-90). The differentiated light was focused onto an Acton SP2150 monochromator (1200 g/nm, 500 nm Blaze) equipped with a high sensitivity cooled Photo Multiplier Tube (H10723-20 Extended red-multialkali PMT based photosensor (5V)). Spectra were recorded using a 5 spectral average sequence in the range of 570-720 nm with 0.5 nm spectral intervals and 500 μs integration time. The recorded CPL spectrum underwent a 25% Fourier transformation smoothening protocol using Origin 8.0 Software (Origin Labs) to enhance appearance (all calculations were carried out using raw spectral data).
The shift in absorption is caused by electronic communication between the electropositive lanthanide center and the chromophore. […] These are not observed for 11, however, as we believe the steric effect of the planar phenyl ring of the benzyl group could not be alleviated by appropriate rotation, whereas that of the isobutyl group could.
The luminescence quantum yields of the complexes are decent in water and HEPES solution, although they are much higher in DMSO, due to the nonradiative quenching by O—H oscillators of water molecules in the second coordination sphere (Table 6). The intrinsic quantum yields^61—a calculated value evaluating the quantum yield of Eu(III) via direct metal excitation—of the complexes are calculated, and, as expected, the values are very similar, except for 10. The higher value corroborates with the shift in absorption maximum, for which we believe the reason is due to a shorter europium—chromophore distance and better interaction. On the other hand, the sensitization efficiencies of the complexes vary. […] The relatively remarkable ηsens of 13 is attributed to its structural rigidity, as both the tetraaza backbone and the acetate arms are modified with a chrial substituent, i.e., double chirality. The double chirality is also attributed for the increase in luminescence quantum yield compared to that of 12a/12b.

[3] = Water solubility of complexes
[4] = Circularly polarized luminescence (CPL), dissymmetry factor glum; conditions: DMSO; wavelength in parentheses in the cell
Experimental: as §1, with “Steady-state” for “Absorption spectra of complexes were measured with HP UV-8453 spectrophotometer. Steady-state”, “time.” for “time. The recorded CPL spectrum underwent a 25% Fourier transformation smoothening protocol using Origin 8.0 Software (Origin Labs) to enhance appearance (all calculations were carried out using raw spectral data).”

Row | SMILES | time to complete complexation with Eu(OTf)3 [1] | R, I(5D0 → 7F2)/I(5D0 → 7F1) [2] | ΦDMSO (%) [2] | λabs(max) [2] | water solubility [3] | glum ΔJ = 3 (λ) DMSO [4] | q (calculated from ref 60) ([2]; from lifetimes in MeOH and MeOD) | ΦEuEu (%) ([2]; intrinsic quantum yield, calculated value) | τD2O/MeOD ([2]; luminescence lifetime, 5D0 → 7F2 transition, D2O (MeOD for 10)) | τH2O/MeOH ([2]; luminescence lifetime, 5D0 → 7F2 transition, H2O (MeOH for 10)) | ΦH2O/MeOH (%) ([2]; luminescence quantum yield relative to quinine sulfate in 0.1M H2SO4, H2O (MeOH for 10, insoluble in H2O)) | ηsens (%) ([2]; sensitization efficiency, calculated according to ref 61) | glum ΔJ = 1 (λ) DMSO [4]
1 | CC[C@H]1CN(CC(=O)O)[C@@H](CC)CN(CC(=O)O)[C@@H](CC)CN(CC(=O)O)[C@@H](CC)CN1CC(=O)O [Complex L2, 2,2′,2″,2′″-((2S,5S,8S,11S)-2,5,8,11-tetraethyl-1,4,7,10-tetraazacyclododecane-1,4,7,10-tetrayl)tetraacetic acid] | ≤ 5 min |  |  |  |  |  |  |  |  |  |  |  | 
2 | COc1cc(OC)c(C#Cc2cc(CN3CC(Cc4ccccc4)N(CC(=O)[O-])CC(Cc4ccccc4)N(CC(=O)[O-])CC(Cc4ccccc4)N(CC(=O)[O-])CC3Cc3ccccc3)nc(P(C)(=O)[O-])c2)c(OC)c1.[Eu+3] (stereo not drawn) [Complex 11] |  | 2.69 | 40.4% | 354 | poor water solubility | +0.25 (657) |  |  |  |  |  |  | 
3 | COc1cc(OC)c(C#Cc2cc(CN3C[C@H](CC(C)C)N(CC(=O)[O-])C[C@H](CC(C)C)N(CC(=O)[O-])C[C@H](CC(C)C)N(CC(=O)[O-])C[C@@H]3CC(C)C)nc(P(C)(=O)[O-])c2)c(OC)c1.[Eu+3] [Complex 10] |  | 3.01 | 45.3% | 364 | poor water solubility | −0.12 (657) | 0.05^g | 36.9% | 1.74 ms | 1.39 ms | 11.1% | 30.1% | −0.11 (591)
